Values quoted from earlier work in US5965160A, “Self-emulsifiable formulation producing an oil-in-water emulsion” (priority 1998, dated 1999).

Conditions: sealed entero-coated hard gelatine capsule; Barnwell et al, 1992

## CC(C)NCC(O)COc1cccc2ccccc12 (stereo not shown) [propranolol]
  oral bioavailability (in words): can be improved by dissolving the drug in a lipid formulation containing mainly oleic acid
